Measurements as given in ChEMBL document CHEMBL1201862, “PubChem BioAssay data set” (2004).
One block for each compound: values may come before it. Active and inactive are the calls of the source.

Tests used:
HEK293 [1] = test: cells; conditions: Homo sapiens
HEK293 [2] = test: cells; conditions: Homo sapiens; remark: listed apart in the source
[3] = Fluorescence-based cell-based high throughput dose response assay for inhibitors of the interaction of nucleotide-binding oligomerization domain containing 2 (NOD2) and the receptor-interacting serine-threonine kinase 2 (RIPK2).; assay type: functional; conditions: Homo sapiens
[4] = reduction of Shn3 3'UTR-driven luciferase in osteoblasts – cell-based, Clone20 osteoblasts, firefly luciferase, cherry-picked, dose response (AID 624132); assay type: functional;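 note: firefly luciferase luminescence from reporter carrying the Shn3 3'UTR in osteoblasts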
[5] = biological target: T1, Type-1 angiotensin II receptor (Homo sapiens, UniProt P30556); test: antagonism of angiotensin II type 1 receptor – cell-based, uHTS hits, selectivity assay for APJ receptor antagonist project, dose response (AID 463214); assay type: functional;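 note: antagonist potency against angiotensin II stimulated AT1 response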
T1 sequence (P30556 whole entry): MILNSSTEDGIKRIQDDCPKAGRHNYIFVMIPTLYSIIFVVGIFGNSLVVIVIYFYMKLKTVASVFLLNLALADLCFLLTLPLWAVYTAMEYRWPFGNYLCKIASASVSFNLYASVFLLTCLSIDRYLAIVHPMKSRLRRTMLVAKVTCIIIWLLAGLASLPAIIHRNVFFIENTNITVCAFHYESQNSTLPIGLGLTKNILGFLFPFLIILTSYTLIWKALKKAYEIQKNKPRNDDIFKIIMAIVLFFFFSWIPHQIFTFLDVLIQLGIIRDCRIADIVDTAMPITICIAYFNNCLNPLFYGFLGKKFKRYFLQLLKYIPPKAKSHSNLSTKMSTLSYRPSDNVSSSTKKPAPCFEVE

[6] = loss of viability in HepG2 cells – cell-based, CellTiter-Glo, cherry-picked, cytotoxicity control for Shn3 inhibitor project, dose response (AID 624134); assay type: functional
Beta-galactosidase = Beta-galactosidase (Escherichia coli, UniProt Q8VNN2); test: PubChem AID 485352; assay type: functional
Sequence of Beta-galactosidase (Q8VNN2 whole entry): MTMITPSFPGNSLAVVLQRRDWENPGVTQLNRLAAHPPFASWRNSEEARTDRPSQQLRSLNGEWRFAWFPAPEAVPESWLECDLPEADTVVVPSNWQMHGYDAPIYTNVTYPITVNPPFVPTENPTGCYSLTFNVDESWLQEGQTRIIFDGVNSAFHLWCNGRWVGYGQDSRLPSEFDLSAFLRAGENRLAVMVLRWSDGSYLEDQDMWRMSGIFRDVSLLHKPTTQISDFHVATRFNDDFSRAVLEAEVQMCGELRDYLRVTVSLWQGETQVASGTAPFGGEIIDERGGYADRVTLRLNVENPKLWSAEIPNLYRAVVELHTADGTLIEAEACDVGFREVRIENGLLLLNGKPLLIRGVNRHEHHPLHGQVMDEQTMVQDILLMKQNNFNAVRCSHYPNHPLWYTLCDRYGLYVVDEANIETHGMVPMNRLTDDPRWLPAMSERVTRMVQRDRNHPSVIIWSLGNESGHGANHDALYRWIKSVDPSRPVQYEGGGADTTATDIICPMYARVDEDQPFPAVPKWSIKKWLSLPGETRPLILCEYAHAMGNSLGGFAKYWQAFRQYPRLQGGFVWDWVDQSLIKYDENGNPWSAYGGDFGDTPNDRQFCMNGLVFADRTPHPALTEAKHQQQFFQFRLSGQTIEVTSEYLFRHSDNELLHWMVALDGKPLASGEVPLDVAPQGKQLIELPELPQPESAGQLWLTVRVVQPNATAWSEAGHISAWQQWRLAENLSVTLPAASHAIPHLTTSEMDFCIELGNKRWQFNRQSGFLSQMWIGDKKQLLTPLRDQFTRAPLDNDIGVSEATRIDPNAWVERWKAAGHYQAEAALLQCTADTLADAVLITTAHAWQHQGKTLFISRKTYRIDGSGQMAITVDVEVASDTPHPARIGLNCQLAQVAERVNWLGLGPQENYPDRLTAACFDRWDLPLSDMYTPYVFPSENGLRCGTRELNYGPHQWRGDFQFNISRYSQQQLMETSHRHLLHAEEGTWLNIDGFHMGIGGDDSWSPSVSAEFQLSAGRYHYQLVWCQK

A-375 = test: proliferation inhibition in MITF-low A375 cells – cell-based, cherry-pick samples, set 2, counter-screen for MITF modulator project, dose response (AID 540335); assay type: functional; conditions: Homo sapiens
[7] = biological target: T2, Short transient receptor potential channel 4 (Mus musculus, UniProt Q9QUQ5); test: calcium entry via TRPC4 opening agents – cell-based, HEK293 TRPC4/mu-opioid, Fluo-4 calcium, dose response (AID 434937); assay type: functional
T2 sequence (Q9QUQ5 whole entry): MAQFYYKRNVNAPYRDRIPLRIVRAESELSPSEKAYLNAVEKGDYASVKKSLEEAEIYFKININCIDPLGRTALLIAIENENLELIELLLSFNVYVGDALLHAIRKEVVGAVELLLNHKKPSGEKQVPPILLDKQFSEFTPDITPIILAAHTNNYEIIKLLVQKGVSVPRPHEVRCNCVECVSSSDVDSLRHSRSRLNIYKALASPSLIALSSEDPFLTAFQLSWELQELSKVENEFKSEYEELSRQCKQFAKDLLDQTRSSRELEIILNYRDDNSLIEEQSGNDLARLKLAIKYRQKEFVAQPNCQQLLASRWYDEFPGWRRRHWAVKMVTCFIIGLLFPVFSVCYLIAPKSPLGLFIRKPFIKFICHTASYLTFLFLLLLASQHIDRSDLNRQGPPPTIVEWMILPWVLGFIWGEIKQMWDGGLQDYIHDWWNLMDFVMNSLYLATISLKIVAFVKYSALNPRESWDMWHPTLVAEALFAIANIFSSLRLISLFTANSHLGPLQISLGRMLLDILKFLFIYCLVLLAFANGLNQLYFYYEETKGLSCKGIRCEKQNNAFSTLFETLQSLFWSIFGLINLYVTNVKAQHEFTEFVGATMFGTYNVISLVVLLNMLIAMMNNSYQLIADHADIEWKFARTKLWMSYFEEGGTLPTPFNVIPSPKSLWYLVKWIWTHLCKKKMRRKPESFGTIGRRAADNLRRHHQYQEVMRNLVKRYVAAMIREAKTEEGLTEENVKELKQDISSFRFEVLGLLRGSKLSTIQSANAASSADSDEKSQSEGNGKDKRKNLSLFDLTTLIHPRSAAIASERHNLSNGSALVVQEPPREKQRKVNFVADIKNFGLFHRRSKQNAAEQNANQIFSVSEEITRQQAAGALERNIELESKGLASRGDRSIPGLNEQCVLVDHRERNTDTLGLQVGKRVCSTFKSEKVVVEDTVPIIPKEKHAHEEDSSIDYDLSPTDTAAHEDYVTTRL

[8] = biological target: Delta-type opioid receptor (Homo sapiens, UniProt P41143); test: Counterscreen for agonists of heterodimerization of the mu 1 (OPRM1) and delta 1 (OPRD1) opioid receptors: Luminescence-based cell-based high throughput dose response assay to identify agonists of OPRD1 homodimerization. [Related pubchem assays (depositor defined):AID504326, AID504355, AID504692, AID504904, AID504905]; assay type: functional
Sequence of Delta-type opioid receptor (P41143 whole entry): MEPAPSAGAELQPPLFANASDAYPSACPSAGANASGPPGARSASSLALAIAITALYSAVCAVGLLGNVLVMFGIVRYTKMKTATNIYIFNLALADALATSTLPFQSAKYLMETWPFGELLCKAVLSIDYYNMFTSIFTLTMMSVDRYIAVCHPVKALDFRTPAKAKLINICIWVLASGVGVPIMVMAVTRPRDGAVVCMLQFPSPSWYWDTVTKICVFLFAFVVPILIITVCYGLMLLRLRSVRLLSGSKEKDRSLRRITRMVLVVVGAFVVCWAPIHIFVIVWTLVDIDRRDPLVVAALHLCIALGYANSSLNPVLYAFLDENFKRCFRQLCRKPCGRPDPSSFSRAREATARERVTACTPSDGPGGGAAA

Mu-type opioid receptor = Mu-type opioid receptor (Homo sapiens, UniProt P35372); test: Counterscreen for agonists of heterodimerization of the mu 1 (OPRM1) and delta 1 (OPRD1) opioid receptors: Luminescence-based cell-based high throughput dose response assay to identify agonists of OPRM1 homodimerization.; assay type: functional;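 note: U2OS cells expressing OPRM1 and beta-arrestin as split beta-galactosidase partners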
Sequence of Mu-type opioid receptor (P35372 whole entry): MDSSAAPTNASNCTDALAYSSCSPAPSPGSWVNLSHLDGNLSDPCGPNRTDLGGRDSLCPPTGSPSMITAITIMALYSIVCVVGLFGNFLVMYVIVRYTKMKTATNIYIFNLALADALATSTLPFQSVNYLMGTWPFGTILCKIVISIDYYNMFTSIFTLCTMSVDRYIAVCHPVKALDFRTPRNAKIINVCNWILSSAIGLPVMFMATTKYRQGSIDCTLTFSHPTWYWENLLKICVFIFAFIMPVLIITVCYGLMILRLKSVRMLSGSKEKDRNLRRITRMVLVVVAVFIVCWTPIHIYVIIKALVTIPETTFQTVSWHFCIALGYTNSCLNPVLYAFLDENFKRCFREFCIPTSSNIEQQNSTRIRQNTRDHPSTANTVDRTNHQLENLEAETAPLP

[9] = biological target: 5-hydroxytryptamine receptor 5A (Homo sapiens, UniProt P47898); test: Counterscreen for agonists of OPRM1-OPRD1 heterodimerization: luminescence-based cell-based high throughput dose response assay to identify agonists of 5-hydroxytryptamine (serotonin) 5A receptor (HTR5A). [Related pubchem assays (depositor defined):AID504326, AID504355, AID504692, AID504904, AID504905]; assay type: functional
Sequence of 5-hydroxytryptamine receptor 5A (P47898 whole entry): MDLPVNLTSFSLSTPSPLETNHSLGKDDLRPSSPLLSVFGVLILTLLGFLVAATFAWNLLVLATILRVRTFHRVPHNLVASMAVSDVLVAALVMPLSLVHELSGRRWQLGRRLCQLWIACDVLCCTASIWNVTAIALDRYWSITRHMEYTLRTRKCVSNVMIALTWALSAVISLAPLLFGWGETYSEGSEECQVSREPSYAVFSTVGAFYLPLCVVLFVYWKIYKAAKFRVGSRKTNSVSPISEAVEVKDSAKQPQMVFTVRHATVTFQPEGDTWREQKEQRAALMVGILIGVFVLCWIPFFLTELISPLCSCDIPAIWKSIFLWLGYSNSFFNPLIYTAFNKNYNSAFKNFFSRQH

Hexokinase-1 = biological target: T3, Hexokinase-1 (Homo sapiens, UniProt P19367); test: hexokinase 1 activity inhibitors, potency – biochemical, set 2, resazurin fluorescence coupled readout, selectivity assay for HKDC1 inhibitor project, SAR follow-up (AID 588356); assay type: functional
T3 sequence (P19367 whole entry): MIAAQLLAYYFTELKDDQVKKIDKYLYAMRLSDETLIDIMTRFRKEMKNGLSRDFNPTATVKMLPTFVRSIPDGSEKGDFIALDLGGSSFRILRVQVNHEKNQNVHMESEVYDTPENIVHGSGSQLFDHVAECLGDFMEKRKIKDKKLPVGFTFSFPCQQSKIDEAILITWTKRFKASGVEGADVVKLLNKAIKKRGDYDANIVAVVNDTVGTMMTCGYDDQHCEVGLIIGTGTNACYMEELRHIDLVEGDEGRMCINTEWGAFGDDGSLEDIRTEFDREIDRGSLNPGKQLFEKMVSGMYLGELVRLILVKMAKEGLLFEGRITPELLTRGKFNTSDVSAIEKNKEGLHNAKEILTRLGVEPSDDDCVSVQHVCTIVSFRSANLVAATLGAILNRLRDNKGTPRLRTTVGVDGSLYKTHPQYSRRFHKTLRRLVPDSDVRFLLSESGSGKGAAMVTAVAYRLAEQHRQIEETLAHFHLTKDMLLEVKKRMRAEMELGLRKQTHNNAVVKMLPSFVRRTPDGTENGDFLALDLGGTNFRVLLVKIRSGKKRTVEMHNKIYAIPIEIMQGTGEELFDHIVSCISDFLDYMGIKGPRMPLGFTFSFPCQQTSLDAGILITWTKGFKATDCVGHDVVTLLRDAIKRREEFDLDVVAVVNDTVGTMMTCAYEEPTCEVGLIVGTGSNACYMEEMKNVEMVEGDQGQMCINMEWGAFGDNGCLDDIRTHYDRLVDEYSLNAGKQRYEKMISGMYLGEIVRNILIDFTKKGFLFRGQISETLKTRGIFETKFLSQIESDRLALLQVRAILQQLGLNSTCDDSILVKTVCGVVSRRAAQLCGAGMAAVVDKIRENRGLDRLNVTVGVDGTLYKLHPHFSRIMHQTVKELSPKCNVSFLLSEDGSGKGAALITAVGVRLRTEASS

Hexokinase HKDC1 = biological target: T4, Hexokinase HKDC1 (Homo sapiens, UniProt Q2TB90); test: analog inhibition of human HKDC1 activity – biochemical, set 2, SAR follow-up (AID 588355); assay type: functional
T4 sequence (Q2TB90 whole entry): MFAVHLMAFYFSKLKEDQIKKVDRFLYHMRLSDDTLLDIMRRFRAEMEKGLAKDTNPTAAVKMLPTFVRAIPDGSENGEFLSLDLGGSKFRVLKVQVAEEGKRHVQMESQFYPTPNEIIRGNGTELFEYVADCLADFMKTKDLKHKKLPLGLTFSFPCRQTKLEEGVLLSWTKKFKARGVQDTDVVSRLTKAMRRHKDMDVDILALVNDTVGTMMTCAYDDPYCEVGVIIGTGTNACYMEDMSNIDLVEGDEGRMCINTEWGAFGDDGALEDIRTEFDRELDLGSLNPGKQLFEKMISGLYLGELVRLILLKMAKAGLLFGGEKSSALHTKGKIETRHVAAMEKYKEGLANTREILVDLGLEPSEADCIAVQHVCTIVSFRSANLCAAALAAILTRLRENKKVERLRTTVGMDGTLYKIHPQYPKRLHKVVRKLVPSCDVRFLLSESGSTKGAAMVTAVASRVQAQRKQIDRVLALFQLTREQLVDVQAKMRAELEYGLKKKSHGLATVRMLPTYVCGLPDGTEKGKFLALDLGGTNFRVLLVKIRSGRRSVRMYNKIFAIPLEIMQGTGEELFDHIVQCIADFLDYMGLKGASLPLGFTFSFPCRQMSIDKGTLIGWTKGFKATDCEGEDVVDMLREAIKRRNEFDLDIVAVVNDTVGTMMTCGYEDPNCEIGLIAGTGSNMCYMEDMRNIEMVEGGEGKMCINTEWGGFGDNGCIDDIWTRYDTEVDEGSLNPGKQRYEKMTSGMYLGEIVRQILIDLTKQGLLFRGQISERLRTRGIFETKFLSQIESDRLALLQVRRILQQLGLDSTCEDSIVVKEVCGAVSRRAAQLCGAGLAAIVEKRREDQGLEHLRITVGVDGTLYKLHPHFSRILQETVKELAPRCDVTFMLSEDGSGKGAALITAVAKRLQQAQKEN

[10] = biological target: T2, Short transient receptor potential channel 4; test: SAR Analysis for the identification of selective inhibits of the transient receptor potential cation channel C4 (TRPC4): Automated Electrophysiology_2. [Related pubchem assays (depositor defined):AID2256]; assay type: functional
[11] = biological target: T2, Short transient receptor potential channel 4; test: potency of mouse TRPC4 calcium flux blockers – cell-based, HEK293 TRPC4/mu-opioid, DAMGO stimulus, Fluo-4, dose response (AID 492994); assay type: functional

Structure (SMILES): Cc1cccc(C(=O)Nc2ccc(C(=O)/C=C/c3ccncc3)cc2)c1
EC50 (HEK293 [1]): > 59.6 µM (inactive)
EC50 (HEK293 [2]): > 59.6 µM (inactive)
IC50 [3]: 3.51 µM (active)
AC50 [4]: 3.41 µM (active)
IC50 [5]: 9.71 µM (active)
AC50 [6]: 36.4 µM (active)
EC50 (Beta-galactosidase): > 40 µM (inactive)

Structure (SMILES): Cc1ccc(-n2cc(CNCCCn3cccn3)c(-c3cccc(C)c3)n2)cc1
AC50 (A-375): 24.3 µM (active)

Structure (SMILES): Cc1cc(N2CCCCCC2)nc2ccc(F)cc12
IC50 [10]: 1.63 µM (active)
IC50 [11]: 3.99 µM (active)

The next lines start with the values.

EC50 [7]: 0.531 µM (active)
EC50 [8]: > 92.5 µM (inactive)
EC50 (Mu-type opioid receptor): > 92.5 µM (inactive)
EC50 [9]: > 92.5 µM (inactive)
Structure (SMILES): CN(C)C(CNC(=O)Cc1ccc([N+](=O)[O-])cc1)c1ccccc1 (stereo unspecified)

IC50 (Hexokinase-1): > 80 µM (inactive)
IC50 (Hexokinase HKDC1): > 80 µM (inactive)
Structure (SMILES): COc1ccc(NC2c3ccccc3C(=O)N2c2ccccc2C)cc1 (stereo unspecified)
